Like-named read-outs stand apart in the source and are kept apart here. Numbered stars: 1 amine (or outer) side, 2 acyl side, 3 side chain; on linkers, the order of the positions; unused ones are H or OH. Bridge positions count the residues as written; N and C are the ends. Square brackets hold non-standard residues; d marks the D form. Peptide text beside a SMILES is read from it. * marks the point of attachment. DOTA = O=C(O)CN1CCN(CC(=O)O)CCN(CC(=O)*)CCN(CC(=O)O)CC1; Phe(F5) = N[C@@H](Cc1c(F)c(F)c(F)c(F)c1F)C(=O)O; Phe(4-Br) = N[C@@H](Cc1ccc(Br)cc1)C(=O)O; 1Nal = N[C@@H](Cc1cccc2ccccc12)C(=O)O; TBMB = c1c(C[*:1])cc(C[*:3])cc1C[*:2]; Cha = N[C@@H](CC1CCCCC1)C(=O)O; Chg = N[C@H](C(=O)O)C1CCCCC1; Phg = N[C@H](C(=O)O)c1ccccc1; Tle = CC(C)(C)[C@H](N)C(=O)O; Sar = CNCC(=O)O
Molecular target: T1, MT1-MMP hemopexin domain (Homo sapiens, UniProt P50281)
T1 construct: residues Cys319-Gly511 from the human gene; His6 (N); made in house; host or cells: HEK293 (transient), pEXPR-IBA42 vector
Assay: Competition assay using fluorescence polarisation
Assay type: binding
Conditions: for Kd: read-out: Kd
Text: Here, a pre-formed complex of PEX with the fluorescent PEX-binding tracer is titrated with free, non-fluoresceinated bicyclic peptide. Since all 17-69-based peptides are expected to bind at the same site, the titrant will displace the fluorescent tracer from PEX. Dissociation of the complex can be measured quantitatively, and the Kd of the competitor (titrant) to the target protein determined. The advantage of the competition method is that the affinities of non-fluoresceinated bicyclic peptides can be determined accurately and rapidly.
Subsequently, the non-fluorescent competitor bicyclic peptide (usually just the bicycle core sequence) is titrated, such that it displaces the fluorescent tracer from the target protein. The displacement of the tracer is measured and associated with a drop in fluorescence polarisation. The drop in fluorescence polarisation is proportional to the fraction of target protein bound with the non-fluorescent titrant, and thus is a measure of the affinity of titrant to target protein.
The raw data is fit to the analytical solution of the cubic equation that describes the equilibria between fluorescent tracer, titrant, and binding protein. The fit requires the value of the affinity of fluorescent tracer to the target protein, which can be determined separately by direct binding FP experiments (see previous section).

[1] = Table 8, substitutions at position 4
[2] = Table 9, tolerated substitutions at positions 9 and 11

Structure (SMILES)	Kd [1] [nM]	potency / activity toward MT1-MMP, in words	also measured
CC[C@H](C)[C@@H]1NC(=O)[C@H](CC(=O)O)NC(=O)[C@H](Cc2ccc(O)cc2)NC(=O)[C@H](Cc2ccccc2)NC(=O)[C@H](CC(=O)O)NC(=O)[C@H](CCC(=O)O)NC(=O)[C@@H]2CSCc3cc(cc(c3)CSC[C@H](NC(C)=O)C(=O)N[C@@H](Cc3ccc(O)cc3)C(=O)N[C@@H](CC(N)=O)C(=O)N[C@@H](CCC(=O)O)C(=O)N[C@@H](C3CCCCC3)C(=O)NCC(=O)N2)CSC[C@@H](C(N)=O)NC1=O [17-69-07-N065, Ac-(17-69-07) Chg4] (Ac-CYNE[Chg]GCEDFYDIC-NH2; linker 1-7-14 via TBMB)	> 5000		
CC[C@@H](C)[C@H]1NC(=O)[C@@H](CC(=O)O)NC(=O)[C@@H](Cc2ccc(O)cc2)NC(=O)[C@@H](Cc2ccccc2)NC(=O)[C@@H](CC(=O)O)NC(=O)[C@@H](CCC(=O)O)NC(=O)[C@H]2CSCc3cc(cc(c3)CSC[C@@H](NC(=O)[C@@H](C)NC(=O)CN3CCN(CC(=O)O)CCN(CC(=O)O)CCN(CC(=O)O)CC3)C(=O)N[C@H](Cc3ccc(O)cc3)C(=O)N[C@H](CC(N)=O)C(=O)N[C@H](CCC(=O)O)C(=O)N[C@H](Cc3ccccc3)C(=O)NCC(=O)N2)CSC[C@H](C(N)=O)NC1=O [17-69-07-N246, DOTA-A-(17-69-07) All D Amino Acids]		lacks any activity toward MT1-MMP	Kd (Table 15, DOTA-linked peptides): > 5000 nM
CC[C@H](C)[C@@H]1NC(=O)[C@H](CC(=O)O)NC(=O)[C@H](Cc2ccc(O)cc2)NC(=O)[C@H](Cc2ccccc2)NC(=O)[C@H](CC(=O)O)NC(=O)[C@H](CCC(=O)O)NC(=O)[C@@H]2CSCc3cc(cc(c3)CSC[C@H](NC(C)=O)C(=O)N[C@@H](Cc3ccc(O)cc3)C(=O)N[C@@H](CC(N)=O)C(=O)N[C@@H](CCC(=O)O)C(=O)N[C@@H](c3ccccc3)C(=O)NCC(=O)N2)CSC[C@@H](C(N)=O)NC1=O [17-69-07-N071, Ac-(17-69-07) Phg4] (Ac-CYNE[Phg]GCEDFYDIC-NH2; linker 1-7-14 via TBMB)	628		
CC[C@H](C)[C@@H]1NC(=O)[C@H](CC(=O)O)NC(=O)[C@H](Cc2c(F)c(F)c(F)c(F)c2F)NC(=O)[C@H](Cc2ccccc2)NC(=O)[C@H](CC(=O)O)NC(=O)[C@H](CCC(=O)O)NC(=O)[C@@H]2CSCc3cc(cc(c3)CSC[C@H](NC(C)=O)C(=O)N[C@@H](Cc3ccc(O)cc3)C(=O)N[C@@H](CC(N)=O)C(=O)N[C@@H](CCC(=O)O)C(=O)N[C@@H](Cc3ccccc3)C(=O)NCC(=O)N2)CSC[C@@H](C(N)=O)NC1=O [17-69-07-N182, Ac-(17-69-07) 5FPhe9] (Ac-CYNEFGCEDF[Phe(F5)]DIC-NH2; linker 1-7-14 via TBMB)			Kd [2]: 13.1 nM
CC(=O)N[C@H]1CSCc2cc3cc(c2)CSC[C@H](NC(=O)[C@@H](C)NC(=O)[C@H](Cc2cccc4ccccc24)NC(=O)[C@H](CCC(=O)O)NC(=O)[C@H](CC(N)=O)NC(=O)[C@@H](C)NC1=O)C(=O)N[C@@H](CCC(=O)O)C(=O)N[C@@H](CC(=O)O)C(=O)N[C@@H](Cc1ccccc1)C(=O)N[C@@H](Cc1ccc(Br)cc1)C(=O)N[C@@H](CC(=O)O)C(=O)N[C@@H](C(C)(C)C)C(=O)N[C@H](C(N)=O)CSC3 [17-69-07-N252, Ac-(17-69-07) D-Ala1 1Nal4 D-Ala5 4BrPhe9 tBuGly11] (Ac-C[dA]NE[1Nal][dA]CEDF[Phe(4-Br)]D[Tle]C-NH2; linker 1-7-14 via TBMB)		potency which is superior to wildtype	Kd (Table 10, multi-substitution): 0.8 ± 0.39 nM
CC[C@H](C)[C@@H]1NC(=O)[C@H](CC(=O)O)NC(=O)[C@H](Cc2ccc(O)cc2)NC(=O)[C@H](Cc2ccccc2)NC(=O)[C@H](CC(=O)O)NC(=O)[C@H](CCC(=O)O)NC(=O)[C@@H]2CSCc3cc(cc(c3)CSC[C@H](NC(C)=O)C(=O)N[C@@H](Cc3ccc(O)cc3)C(=O)N[C@@H](CC(N)=O)C(=O)N[C@@H](CCC(=O)O)C(=O)N[C@@H](CCc3ccccc3)C(=O)NCC(=O)N2)CSC[C@@H](C(N)=O)NC1=O [17-69-07-N140, Ac-(17-69-07) HPhe4]	43.3		
C[C@H](NC(=O)CN1CCN(CC(=O)O)CCN(CC(=O)O)CCN(CC(=O)O)CC1)C(=O)N[C@H]1CSCc2cc3cc(c2)CSC[C@H](NC(=O)[C@@H](C)NC(=O)[C@H](Cc2cccc4ccccc24)NC(=O)[C@H](CCC(=O)O)NC(=O)[C@H](CC(N)=O)NC(=O)[C@@H](C)NC1=O)C(=O)N[C@@H](CCC(=O)O)C(=O)N[C@@H](CC(=O)O)C(=O)N[C@@H](Cc1ccccc1)C(=O)N[C@@H](Cc1ccc(Br)cc1)C(=O)N[C@@H](CC(=O)O)C(=O)N[C@@H](C(C)(C)C)C(=O)N[C@H](C(N)=O)CSC3 [17-69-07-N248, DOTA-A-(17-69-07) D-Ala1 1Nal4 D-Ala5 4BrPhe9 tBuGly11] ({DOTA}-AC[dA]NE[1Nal][dA]CEDF[Phe(4-Br)]D[Tle]C-NH2; linker 2-8-15 via TBMB)		retained potency	Kd (Table 15, DOTA-linked peptides): 0.5 nM
CC[C@H](C)[C@@H]1NC(=O)[C@H](CC(=O)O)NC(=O)[C@H](Cc2ccc(O)cc2)NC(=O)[C@H](Cc2ccccc2)NC(=O)[C@H](CC(=O)O)NC(=O)[C@H](CCC(=O)O)NC(=O)[C@@H]2CSCc3cc(cc(c3)CSC[C@H](NC(C)=O)C(=O)N[C@@H](Cc3ccc(O)cc3)C(=O)N[C@@H](CC(N)=O)C(=O)N[C@@H](CCC(=O)O)C(=O)N[C@@H](CC3CCCCC3)C(=O)NCC(=O)N2)CSC[C@@H](C(N)=O)NC1=O [17-69-07-N139, Ac-(17-69-07) Cha4] (Ac-CYNE[Cha]GCEDFYDIC-NH2; linker 1-7-14 via TBMB)	362		
CC[C@H](C)[C@@H]1NC(=O)[C@H](CC(=O)O)NC(=O)[C@H](Cc2ccc(O)cc2)NC(=O)[C@H](Cc2ccccc2)NC(=O)[C@H](CC(=O)O)NC(=O)[C@H](CCC(=O)O)NC(=O)[C@@H]2CSCc3cc(cc(c3)CSC[C@H](NC(C)=O)C(=O)N[C@@H](Cc3ccc(O)cc3)C(=O)N[C@@H](CC(N)=O)C(=O)N[C@@H](CCC(=O)O)C(=O)N[C@@H](Cc3cccc4ccccc34)C(=O)NCC(=O)N2)CSC[C@@H](C(N)=O)NC1=O [17-69-07-N067, Ac-(17-69-07) 1NAl4] (Ac-CYNE[1Nal]GCEDFYDIC-NH2; linker 1-7-14 via TBMB)	0.36 ± 0.12		
CC[C@H](C)[C@@H]1NC(=O)[C@H](CC(=O)O)NC(=O)[C@H](Cc2ccc(Br)cc2)NC(=O)[C@H](Cc2ccccc2)NC(=O)[C@H](CC(=O)O)NC(=O)[C@H](CCC(=O)O)NC(=O)[C@@H]2CSCc3cc(cc(c3)CSC[C@H](NC(C)=O)C(=O)N[C@@H](Cc3ccc(O)cc3)C(=O)N[C@@H](CC(N)=O)C(=O)N[C@@H](CCC(=O)O)C(=O)N[C@@H](Cc3ccccc3)C(=O)NCC(=O)N2)CSC[C@@H](C(N)=O)NC1=O [17-69-07-N130, Ac-(17-69-07) 4BrPhe9] (Ac-CYNEFGCEDF[Phe(4-Br)]DIC-NH2; linker 1-7-14 via TBMB)			Kd [2]: 2.45 ± 1.08 nM
CC(=O)N[C@H]1CSCc2cc3cc(c2)CSC[C@H](NC(=O)CNC(=O)[C@H](Cc2ccccc2)NC(=O)[C@H](CCC(=O)O)NC(=O)[C@H](CC(N)=O)NC(=O)[C@H](Cc2ccc(O)cc2)NC1=O)C(=O)N[C@@H](CCC(=O)O)C(=O)N[C@@H](CC(=O)O)C(=O)N[C@@H](Cc1ccccc1)C(=O)N[C@@H](Cc1ccc(O)cc1)C(=O)N[C@@H](CC(=O)O)C(=O)N[C@@H](C(C)(C)C)C(=O)N[C@H](C(N)=O)CSC3 [17-69-07-N100, Ac-(17-69-07) tBuGly11] (Ac-CYNEFGCEDFYD[Tle]C-NH2; linker 1-7-14 via TBMB)			Kd [2]: 1.56 ± 1.14 nM
CC[C@H](C)[C@@H]1NC(=O)[C@H](CC(=O)O)NC(=O)[C@H](Cc2ccc(O)cc2)NC(=O)[C@H](Cc2ccccc2)NC(=O)[C@H](CC(=O)O)NC(=O)[C@H](CCC(=O)O)NC(=O)[C@@H]2CSCc3cc(cc(c3)CSC[C@@H](C(=O)N[C@@H](C)C(N)=O)NC1=O)CSC[C@H](NC(=O)[C@H](C)N)C(=O)N[C@@H](Cc1ccccc1)C(=O)NCC(=O)N[C@@H](CCC(=O)O)C(=O)N[C@@H](Cc1ccccc1)C(=O)NCC(=O)N2 [17-69-02-N001, A-(17-69-02)-A] (H-ACFGEFGCEDFYDICA-NH2; linker 2-8-15 via TBMB)			Kd (Table 2, FP method Competition, tracer A-(17-69-07)-A-Sar6-K(Fluorescein)): 191 nM
CC(=O)NCC(=O)N(C)CC(=O)N(C)CC(=O)N(C)CC(=O)N(C)CC(=O)N(C)CC(=O)N(C)CC(=O)N(C)CC(=O)N(C)CC(=O)N(C)CC(=O)N(C)CC(=O)N[C@@H](C)C(=O)N[C@H]1CSCc2cc3cc(c2)CSC[C@H](NC(=O)[C@@H](C)NC(=O)[C@H](Cc2cccc4ccccc24)NC(=O)[C@H](CCC(=O)O)NC(=O)[C@H](CC(N)=O)NC(=O)[C@@H](C)NC1=O)C(=O)N[C@@H](CCC(=O)O)C(=O)N[C@@H](CC(=O)O)C(=O)N[C@@H](Cc1ccccc1)C(=O)N[C@@H](Cc1ccc(O)cc1)C(=O)N[C@@H](CC(=O)O)C(=O)N[C@@H](C(C)(C)C)C(=O)N[C@H](C(N)=O)CSC3 [17-69-07-N239, Ac-G-Sar10-A-(17-69-07) D-Ala1 1Nal4 D-Ala5 tBuGly11] (Ac-G[Sar][Sar][Sar][Sar][Sar][Sar][Sar][Sar][Sar][Sar]AC[dA]NE[1Nal][dA]CEDFYD[Tle]C-NH2; linker 13-19-26 via TBMB)		potency which is superior to wildtype	Kd (Table 11, G-Sar10-A addition): 0.94 ± 0.08 nM
